pIC50: −log10 of the molar value.
Columns and labels:
[1] = test system: A549; assay: Antiproliferative activity against human A549 cells assessed as inhibition of cell growth incubated for 48 hrs by MTT assay; format: functional, cell-based; details: A549, 48 h
[2] = test system: HCT-116; assay: Antiproliferative activity against human HCT-116 cells assessed as inhibition of cell growth incubated for 48 hrs by MTT assay; format: functional, cell-based; details: HCT-116, 48 h
[3] = test system: MCF7; assay: Antiproliferative activity against human MCF7 cells assessed as inhibition of cell growth incubated for 48 hrs by MTT assay; format: functional, cell-based; details: MCF7, 48 h
[4] = test system: NCI/ADR-RES; assay: Antiproliferative activity against human MCF7ADR cells assessed as inhibition of cell growth measured after 48 hrs by MTT assay; format: functional, cell-based
[5] = Cytotoxicity against human MCF-10A cells assessed as cell growth inhibition measured after 48 hrs by MTT assay; format: toxicity, cell-based
[6] = test system: MCF7; assay: Antitumor activity against human MCF7 cells xenografted in BALB/c nude mouse assessed as reduction in tumor weight at 10 mg/kg, ip administered once every two days for 3 weeks relative to control; format: functional; set-up: scale not given: the % may be the effect or the level left
[7] = Toxicity in BALB/c mouse xenografted with human MCF7 cells assessed as heart damage at 10 mg/kg, ip administered once every two days for 3 weeks by H and E staining based microscopic analysis; format: organism-based; details: in vivo, 504 h
[8] = Toxicity in BALB/c mouse xenografted with human MCF7 cells assessed as liver damage at 10 mg/kg, ip administered once every two days for 3 weeks by H and E staining based microscopic analysis; format: organism-based; details: in vivo, 504 h
[9] = Toxicity in BALB/c mouse xenografted with human MCF7 cells assessed as spleen damage at 10 mg/kg, ip administered once every two days for 3 weeks by H and E staining based microscopic analysis; format: organism-based; details: in vivo, 504 h
[10] = Toxicity in BALB/c mouse xenografted with human MCF7 cells assessed as lung damage at 10 mg/kg, ip administered once every two days for 3 weeks by H and E staining based microscopic analysis; format: organism-based; details: in vivo, 504 h
[11] = Toxicity in BALB/c mouse xenografted with human MCF7 cells assessed as kidney damage at 10 mg/kg, ip administered once every two days for 3 weeks by H and E staining based microscopic analysis; format: organism-based; details: in vivo, 504 h

SMILES | pIC50 [1] | pIC50 [2] | pIC50 [3] | pIC50 [4] | IC50 at 48 h [5] | Activity [6] | Activity [7] | Activity [8] | Activity [9] | Activity [10] | Activity [11]
O=C(OCCOc1no[n+]([O-])c1S(=O)(=O)c1ccccc1)c1ccnc2ccccc12 | 5.46 | < 5.30 | 5.34 | 5.48 | 23.2 µM | – | – | – | – | – | –
COc1cccc2c1C(=O)c1c(O)c3c(c(O)c1C2=O)C[C@@](O)(C(=O)CO)C[C@@H]3O[C@H]1C[C@H](N)[C@H](O)[C@H](C)O1 [DOXORUBICIN] | 6.24 | 6.14 | – | – | – | – | – | – | – | – | –
COc1cc(-c2cc(C(=O)OCCCCOc3no[n+]([O-])c3S(=O)(=O)c3ccccc3)c3ccccc3n2)cc(OC)c1OC | 5.62 | 5.69 | 5.83 | 5.96 | 36.5 µM | – | – | – | – | – | –
O=C(OCCCCOc1no[n+]([O-])c1S(=O)(=O)c1ccccc1)c1ccnc2ccccc12 | < 5.30 | 5.40 | 5.37 | 5.37 | 32.2 µM | – | – | – | – | – | –
O=S(=O)(c1ccccc1)c1c(OCCCCCO)no[n+]1[O-] | – | – | 4.84 | – | – | – | – | – | – | – | –
COc1cc(-c2cc(C(=O)OCCCCCCOc3no[n+]([O-])c3S(=O)(=O)c3ccccc3)c3ccccc3n2)cc(OC)c1OC | 5.57 | 5.36 | 5.50 | 5.48 | 28.2 µM | – | – | – | – | – | –
CC(=O)O[C@H]1C(=O)[C@@]2(C)[C@H]([C@H](OC(=O)c3ccccc3)[C@]3(O)C[C@H](OC(=O)[C@H](O)[C@@H](NC(=O)c4ccccc4)c4ccccc4)C(C)=C1C3(C)C)[C@]1(OC(C)=O)CO[C@@H]1C[C@@H]2O [PACLITAXEL] | – | – | – | – | – | 61.18% | Non-Toxic | Non-Toxic | Non-Toxic | Non-Toxic | Non-Toxic
COc1cc(-c2cc(C(=O)O)c3ccccc3n2)cc(OC)c1OC | – | – | < 4.30 | – | – | – | – | – | – | – | –
O=C(O)c1ccnc2ccccc12 | < 4.30 | < 4.30 | < 4.30 | < 4.30 | > 50 µM | – | – | – | – | – | –
COc1cc(-c2cc(C(=O)OCCCOc3no[n+]([O-])c3S(=O)(=O)c3ccccc3)c3ccccc3n2)cc(OC)c1OC | 5.64 | 5.60 | 5.78 | 5.90 | 30.7 µM | – | – | – | – | – | –
O=C(OCCCCCCOc1no[n+]([O-])c1S(=O)(=O)c1ccccc1)c1ccnc2ccccc12 | < 5.30 | 5.30 | 5.37 | 5.26 | 34.1 µM | – | – | – | – | – | –
O=C(OCCCOc1no[n+]([O-])c1S(=O)(=O)c1ccccc1)c1ccnc2ccccc12 | < 5.30 | 5.36 | 5.37 | 5.29 | 25.4 µM | – | – | – | – | – | –
COc1cc(-c2cc(C(=O)OCCOc3no[n+]([O-])c3S(=O)(=O)c3ccccc3)c3ccccc3n2)cc(OC)c1OC | 5.57 | 5.42 | 5.65 | 5.47 | 16.3 µM | – | – | – | – | – | –
O=C(OCCCCCOc1no[n+]([O-])c1S(=O)(=O)c1ccccc1)c1ccnc2ccccc12 | < 5.30 | 5.31 | < 5.30 | 5.33 | 4.21 µM | – | – | – | – | – | –

Source: ChEMBL document CHEMBL5329205, “Development of novel quinoline-NO donor hybrids inducing human breast cancer cells apoptosis via inhibition of topoisomerase I” (Bioorg Med Chem, 2023)
